This is an account of results in US20240246941A1, “SUBSTITUTED 4-(3-AMINOPROP-1-YL)AMINOQUINOLINE ANALOGS AS MODULATORS OF MELANOMA-ASSOCIATED ANTIGEN 11 UBIQUITIN LIGASE” (ST. JUDE CHILDREN'S RESEARCH HOSPITAL, INC., priority 2020, published 2024).

For the first test, the target named is MAGE-A11:PCF11 (Homo sapiens (Human), UniProt P43364). As to the kind of experiment: TR-FRET single point screening at 15 μM. The class given is binding. Set-up: unit not given here. To be noted: single point TR-FRET screening at 15 μM against MAGE-A11:PCF11. A digest of the protocol: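 Competition TR-FRET: compounds at final 15 μM mixed with 200 nM FAM-PCF11_4, 5 nM GST-MAGEA11 and 5 nM Tb-anti-GST in Tris pH 7.5/MgCl2/BSA/DTT buffer, room temperature, 90 min. Emission ratio 520/490 nm (340 nm excitation) expressed as % inhibition relative to positive and negative controls.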
MAGE-A11:PCF11, sequence (P43364 218-429): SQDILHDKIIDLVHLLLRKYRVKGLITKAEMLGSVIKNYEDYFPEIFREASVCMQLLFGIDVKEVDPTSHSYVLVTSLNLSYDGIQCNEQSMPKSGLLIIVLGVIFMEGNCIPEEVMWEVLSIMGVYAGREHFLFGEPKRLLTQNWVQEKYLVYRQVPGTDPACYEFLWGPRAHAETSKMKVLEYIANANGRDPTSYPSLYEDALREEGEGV
On to `Clc1ccc2c(NCCCCN(Cc3ccccc3)Cc3ccncc3)ccnc2c1` [SJ000361190], for which the TR-FRET signal is given as −9.945.
`Cc1ccsc1CN(CCCCNc1ccnc2cc(Cl)ccc12)Cc1ccccc1` [SJ000361191] came in with a TR-FRET signal of 23.44.
Take `FC(F)(F)c1ccccc1CN(CCCCNc1ccnc2cc(Cl)ccc12)Cc1ccccc1` [SJ000361192]: the TR-FRET signal worked out at 27.82.
With `Cc1cc(C)c(CN(CCCCNc2ccnc3cc(Cl)ccc23)Cc2ccccc2)c(C)c1` [SJ000361193], the TR-FRET signal is on record as 26.03.
Compound `Clc1ccc2c(NCCCCN(Cc3ccccc3)CC3CCCCC3)ccnc2c1` [SJ000361194] gave a TR-FRET signal of 41.93.
`CCC(CC)CN(CCCCNc1ccnc2cc(Cl)ccc12)Cc1ccccc1` [SJ000361195] came in with a TR-FRET signal of 25.54.
`CCCCCN(CCCCNc1ccnc2cc(Cl)ccc12)Cc1ccccc1` [SJ000361196] gave a TR-FRET signal of 19.1.
`Fc1ccc(CN(CCCCNc2ccnc3cc(Cl)ccc23)Cc2ccccc2)cc1F` [SJ000361197] displayed a TR-FRET signal of 26.09.
Same read-out and setting: for `Fc1ccccc1CN(CCCCNc1ccnc2cc(Cl)ccc12)Cc1ccccc1` [SJ000361198] the value was 20.78.
`Fc1cccc(CN(CCCCNc2ccnc3cc(Cl)ccc23)Cc2ccccc2)c1` [SJ000361199] displayed a TR-FRET signal of 28.34.
As for `O=[N+]([O-])c1ccccc1CN(CCCCNc1ccnc2cc(Cl)ccc12)Cc1ccccc1` [SJ000361200], the TR-FRET signal was 17.21.
In turn, `O=[N+]([O-])c1cccc(CN(CCCCNc2ccnc3cc(Cl)ccc23)Cc2ccccc2)c1` [SJ000361201] came in with a TR-FRET signal of 24.37.
In turn, `O=[N+]([O-])c1ccc(CN(CCCCNc2ccnc3cc(Cl)ccc23)Cc2ccccc2)cc1` [SJ000361202] returned a TR-FRET signal of 15.25.
Take `O=C(O)c1ccccc1CN(CCCCNc1ccnc2cc(Cl)ccc12)Cc1ccccc1` [SJ000361203]: the TR-FRET signal amounted to 4.099.
`Clc1ccc2c(NCCCCN(Cc3ccccc3)Cc3cccc4ccccc34)ccnc2c1` [SJ000361204] came in with a TR-FRET signal of 26.49.
In turn, `Clc1ccc2c(NCCCCN(Cc3ccccc3)Cc3ccc4ccccc4c3)ccnc2c1` [SJ000361205] came in with a TR-FRET signal of 24.64.
Same read-out and setting: the same measure for `Cc1cccc(CN(CCCCNc2ccnc3cc(Cl)ccc23)Cc2ccccc2)c1` [SJ000361206]: 29.54.
In the case of `Clc1ccc(CN(CCCCNc2ccnc3cc(Cl)ccc23)Cc2ccccc2)c(Cl)c1` [SJ000361207], the TR-FRET signal is 35.43.
`CCC(C)CN(CCCCNc1ccnc2cc(Cl)ccc12)Cc1ccccc1` (stereo not drawn) [SJ000361208]: the TR-FRET signal came out at 35.37.
`Cc1ccc(C)c(CN(CCCCNc2ccnc3cc(Cl)ccc23)Cc2ccccc2)c1` [SJ000361209] had a TR-FRET signal of 32.65.
Compound `COc1cccc(CN(CCCCNc2ccnc3cc(Cl)ccc23)Cc2ccccc2)c1` [SJ000361210] showed a TR-FRET signal of 11.72.
On the same count and under the same terms, for `Clc1ccc2c(NCCCCN(CCc3ccccc3)Cc3ccccc3)ccnc2c1` [SJ000361211] the value was 23.38.
`CCCCCCN(CCCCNc1ccnc2cc(Cl)ccc12)Cc1ccccc1` [SJ000361212]: the TR-FRET signal was determined as 23.58.

Staying with this test, now noted: single point TR-FRET screening of quinoline compounds against MAGE-A11:PCF11; 15 μM.
Compound `Clc1ccc(CN(CCCNc2ccnc3cc(Cl)ccc23)Cc2ccccc2)c(Cl)c1` [SJ000361184] had a TR-FRET signal of 25.5.
`Clc1ccc2c(NCCCN(CCCc3ccccc3)Cc3ccccc3)ccnc2c1` [SJ000361185] came in with a TR-FRET signal of 6.074.
Consider `CCC(C)CN(CCCNc1ccnc2cc(Cl)ccc12)Cc1ccccc1` (stereo not drawn) [SJ000361186], for which the TR-FRET signal is 29.6.
For `Cc1ccc(C)c(CN(CCCNc2ccnc3cc(Cl)ccc23)Cc2ccccc2)c1` [SJ000361187], the TR-FRET signal is recorded as 20.22.
In turn, `COc1cccc(CN(CCCNc2ccnc3cc(Cl)ccc23)Cc2ccccc2)c1` [SJ000361188] showed a TR-FRET signal of −9.05.
Consider `CCCCCCN(CCCNc1ccnc2cc(Cl)ccc12)Cc1ccccc1` [SJ000361189], for which the TR-FRET signal is reported as −40.75.
As for `CCCN(CCC)CCCNc1ccnc2cc(C(F)(F)F)ccc12` [SJ000361250], the TR-FRET signal was 15.68.
The same measure, in the same setting: the same measure for `CCCN(CCCNc1ccnc2cc(C(F)(F)F)ccc12)Cc1ccncc1` [SJ000361251]: 17.49; for `CCCN(CCCNc1ccnc2cc(C(F)(F)F)ccc12)Cc1ccccn1` [SJ000361252]: 15.16; for `CCCN(CCCNc1ccnc2cc(C(F)(F)F)ccc12)Cc1cccs1` [SJ000361253]: 19.53.
In turn, `CCCN(CCCNc1ccnc2cc(C(F)(F)F)ccc12)Cc1ccsc1` [SJ000361254] had a TR-FRET signal of 28.88.
The compound `CCCN(CCCNc1ccnc2cc(C(F)(F)F)ccc12)Cc1ccc[nH]1` [SJ000361255] yielded a TR-FRET signal of 30.66.
As for `CCCN(CCCNc1ccnc2cc(C(F)(F)F)ccc12)Cc1ccccc1` [SJ000361256], the TR-FRET signal was 28.82.
In turn, `CCCN(CCCNc1ccnc2cc(C(F)(F)F)ccc12)Cc1ccccc1O` [SJ000361257] gave a TR-FRET signal of 26.5.
Compound `CCCN(CCCNc1ccnc2cc(C(F)(F)F)ccc12)Cc1ccc(C)s1` [SJ000361258] showed a TR-FRET signal of 19.08.
Take `CCCN(CCCNc1ccnc2cc(C(F)(F)F)ccc12)Cc1ccccc1C(F)(F)F` [SJ000361259]: the TR-FRET signal is listed as 4.988.
As to `CCCN(CCCNc1ccnc2cc(C(F)(F)F)ccc12)Cc1cccc(OC)c1O` [SJ000361260], the TR-FRET signal stood at 15.49.
The compound `CCCN(CCCNc1ccnc2cc(C(F)(F)F)ccc12)Cc1ccc(C)o1` [SJ000361261] showed a TR-FRET signal of 23.91.
For the compound `CCCN(CCCNc1ccnc2cc(C(F)(F)F)ccc12)Cc1c(F)cccc1OC` [SJ000361262], the TR-FRET signal is on record as 29.23.
In turn, `CCCN(CCCNc1ccnc2cc(C(F)(F)F)ccc12)Cc1cc(OC)ccc1O` [SJ000361263] gave a TR-FRET signal of 25.26.
Compound `CCCN(CCCNc1ccnc2cc(C(F)(F)F)ccc12)Cc1c(C)cc(C)cc1C` [SJ000361264] displayed a TR-FRET signal of 19.93.
Regarding `CCCN(CCCNc1ccnc2cc(C(F)(F)F)ccc12)Cc1ccco1` [SJ000361265], the TR-FRET signal is given as 24.11.
Consider `CCCN(CCCNc1ccnc2cc(C(F)(F)F)ccc12)CC1CC1` [SJ000361266], for which the TR-FRET signal was found to be 48.15.
As for `CCCN(CCCNc1ccnc2cc(C(F)(F)F)ccc12)Cc1ccoc1` [SJ000361267], the TR-FRET signal came out at 28.55.
Consider `CCCN(CCCNc1ccnc2cc(C(F)(F)F)ccc12)CC1CCCCC1` [SJ000361268], for which the TR-FRET signal was 33.31.
Turning to `CCCN(CCCNc1ccnc2cc(C(F)(F)F)ccc12)CC(CC)CC` [SJ000361269], the TR-FRET signal came to 30.66.
Consider `CCCN(CCCNc1ccnc2cc(C(F)(F)F)ccc12)Cc1ccc2c(c1)OCO2` [SJ000361270], for which the TR-FRET signal is 5.623.
Compound `CCCCCN(CCC)CCCNc1ccnc2cc(C(F)(F)F)ccc12` [SJ000361271] gave a TR-FRET signal of 30.93.
Consider `CCCN(CCCNc1ccnc2cc(C(F)(F)F)ccc12)Cc1ccc(F)c(F)c1` [SJ000361272], for which the TR-FRET signal was found to be 13.84.
The same measure, in the same setting: the same measure for `CCCN(CCCNc1ccnc2cc(C(F)(F)F)ccc12)Cc1ccc(OC)cc1` [SJ000361273]: 22.9; for `CCCN(CCCNc1ccnc2cc(C(F)(F)F)ccc12)Cc1ccccc1F` [SJ000361274]: 19.22.
